Patent publication US9868758B2, “Betulinic proline imidazole derivatives as HIV inhibitors” (HETERO LABS LIMITED, priority 2014, dated 2018)

What was measured:
[1] = test system: HIV-1 strains, for e.g., 92HT599; experiment: Antiviral activity: p24 estimation in HIV-1 infected MT-2 cells; assay type: cell-based; conditions: Human immunodeficiency virus 1, MT2; MT-2 cells, p24; read-out: Antiviral activity IC50
Method: MT-2 cells were infected with required number of TCID50's of HIV-1 strains, for e.g., 92HT599. The infected cells were plated at the concentration of 30,000 cells per well in a 96 well plate. Test compound was added to the 96 well plate with the final concentration of DMSO (vehicle—not more than 1%). The plates are then incubated in a CO2 incubator for ˜96 hours (˜4 days) for viral infection. At the end of incubation period an aliquot from each well was taken for p24 estimation. The quantitation of p24 is an estimated index for antiviral activity of the compound. Percent inhibition was calculated with reference to control values (vehicle controls).
p-24 estimation was carried out using Advance biosciences kit as per the procedure detailed by supplier.

[2] = Single dose oral pharmacokinetic study; parameters: species or system mice; conditions: mouse, in vivo, po, 30 mg/kg
Method: The test item was administered through oral route to animals (rat/mice) at 30 mg/kg dose in a suitable vehicle at 10 ml/kg dose volume. Blood samples (˜50 uL at each time point) were collected from retro-orbital plexus using K3 EDTA as anticoagulant in eppendorf tubes at defined time intervals under light ether anesthesia. The samples were centrifuged at 3500×g to separate plasma and stored at −80° C. until analysis.
Sample analysis: Test samples were analyzed using LC-MS-MS after developing fit-for-purpose method for each of test compound.

| Compound | IC50 [1] [µM] | AUC(0-t) [2] [µg·h/mL] | Cmax [2] [ng/mL] |
| --- | --- | --- | --- |
| C=C(C)[C@@H]1CC[C@]2(C(=O)N3CCC[C@H]3c3nc(-c4ccccc4)cn3C)CC[C@]3(C)[C@H](CC[C@@H]4[C@@]5(C)CC[C@H](OC(=O)[C@H]6C[C@@H](C(=O)O)C6(C)C)C(C)(C)[C@@H]5CC[C@]43C)[C@@H]12 [Compound 1, (1R,3S)-2,2-dimethyl-3-((((1R,3aS,5aR,5bR,7aR,9S,11aR,11bR,13aR,13bR)-5a,5b,8,8,11a-pentamethyl-3a-((S)-2-(1-methyl-4-phenyl-1H-imidazol-2-yl)pyrrolidine-1-carbonyl)-1-(prop-1-en-2-yl)icosahydro-1H-cyclopenta[a]chrysen-9-yl)oxy)carbonyl)cyclobutane-1-carboxylic acid] | 0.00674 | 250 | 8540 |
| C=C(C)[C@@H]1CC[C@]2(C(=O)N3CCC[C@H]3c3nc(-c4ccccc4)cn3CCOCCOC)CC[C@]3(C)[C@H](CC[C@@H]4[C@@]5(C)CC[C@H](OC(=O)[C@H]6C[C@@H](C(=O)O)C6(C)C)C(C)(C)[C@@H]5CC[C@]43C)[C@@H]12 [Compound 2, (1R,3S)-3-((((1R,3aS,5aR,5bR,7aR,9S,11aR,11bR,13aR,13bR)-3a-((S)-2-(1-(2-(2-methoxyethoxy)ethyl)-4-phenyl-1H-imidazol-2-yl)pyrrolidine-1-carbonyl)-5a,5b,8,8,11a-pentamethyl-1-(prop-1-en-2-yl)icosahydro-1H-cyclopenta[a]chrysen-9-yl)oxy)carbonyl)-2,2-dimethyl cyclobutane-1-carboxylic acid] |  | 335 | 11400 |
| C=C(C)[C@@H]1CC[C@]2(C(=O)N3CCC[C@H]3c3nc(-c4ccccc4)cn3CCN3CCOCC3)CC[C@]3(C)[C@H](CC[C@@H]4[C@@]5(C)CC[C@H](OC(=O)[C@H]6C[C@@H](C(=O)O)C6(C)C)C(C)(C)[C@@H]5CC[C@]43C)[C@@H]12 [Compound 3, (1R,3S)-2,2-dimethyl-3-((((1R,3aS,5aR,5bR,7aR,9S,11aR,11bR,13aR,13bR)-5a,5b,8,8,11a-pentamethyl-3a-((S)-2-(1-(2-morpholinoethyl)-4-phenyl-1H-imidazol-2-yl)pyrrolidine-1-carbonyl)-1-(prop-1-en-2-yl)icosahydro-1H-cyclopenta[a]chrysen-9-yl)oxy)carbonyl)cyclo butane-1-carboxylic acid] | 0.113 | 407 | 14700 |
| C=C(C)[C@@H]1CC[C@]2(C(=O)N3CCC[C@H]3c3nc(-c4ccccc4)cn3CCOC)CC[C@]3(C)[C@H](CC[C@@H]4[C@@]5(C)CC[C@H](OC(=O)[C@H]6C[C@@H](C(=O)O)C6(C)C)C(C)(C)[C@@H]5CC[C@]43C)[C@@H]12 [Compound 4, (1R,3S)-3-((((1R,3aS,5aR,5bR,7aR,9S,11aR,11bR,13aR,13bR)-3a-((S)-2-(1-(2-methoxyethyl)-4-phenyl-1H-imidazol-2-yl)pyrrolidine-1-carbonyl)-5a,5b,8,8,11a-pentamethyl-1-(prop-1-en-2-yl)icosahydro-1H-cyclopenta[a]chrysen-9-yl)oxy)carbonyl)-2,2-dimethylcyclobutane-1-carboxylic acid] |  | 291 | 9220 |
| C=C(C)[C@@H]1CC[C@]2(C(=O)N3CCC[C@H]3c3nc(-c4ccccc4)cn3CCN(C)C)CC[C@]3(C)[C@H](CC[C@@H]4[C@@]5(C)CC[C@H](OC(=O)[C@H]6C[C@@H](C(=O)O)C6(C)C)C(C)(C)[C@@H]5CC[C@]43C)[C@@H]12 [Compound 5, (1R,3S)-3-((((1R,3aS,5aR,5bR,7aR,9S,11aR,11bR,13aR,13bR)-3a-((S)-2-(1-(2-(dimethylamino)ethyl)-4-phenyl-1H-imidazol-2-yl)pyrrolidine-1-carbonyl)-5a,5b,8,8,11a-pentamethyl-1-(prop-1-en-2-yl)icosahydro-1H-cyclopenta[a]chrysen-9-yl)oxy)carbonyl)-2,2-dimethylcyclobutane-1-carboxylic acid] | 0.0732 | 292 | 10400 |
| C=C(C)[C@@H]1CC[C@]2(C(=O)N3CCC[C@H]3c3nc(-c4cccnc4)cn3CCN(C)C)CC[C@]3(C)[C@H](CC[C@@H]4[C@@]5(C)CC[C@H](OC(=O)[C@H]6C[C@@H](C(=O)O)C6(C)C)C(C)(C)[C@@H]5CC[C@]43C)[C@@H]12 [Compound 6, (1R,3S)-3-((((1R,3aS,5aR,5bR,7aR,9S,11aR,11bR,13aR,13bR)-3a-((S)-2-(1-(2-(dimethylamino)ethyl)-4-(pyridin-3-yl)-1H-imidazol-2-yl)pyrrolidine-1-carbonyl)-5a,5b,8,8,11a-pentamethyl-1-(prop-1-en-2-yl)icosahydro-1H-cyclopenta[a]chrysen-9-yl)oxy)carbonyl)-2,2-dimethyl cyclobutane-1-carboxylic acid] | 0.00255 | 212 | 9460 |
| C=C(C)[C@@H]1CC[C@]2(C(=O)N3CCC[C@H]3c3nc(-c4ccc(F)cc4)cn3CCN(C)C)CC[C@]3(C)[C@H](CC[C@@H]4[C@@]5(C)CC[C@H](OC(=O)[C@H]6C[C@@H](C(=O)O)C6(C)C)C(C)(C)[C@@H]5CC[C@]43C)[C@@H]12 [Compound 7, (1R,3S)-3-((((1R,3aS,5aR,5bR,7aR,9S,11aR,11bR,13aR,13bR)-3a-((S)-2-(1-(2-(dimethylamino)ethyl)-4-(4-fluorophenyl)-1H-imidazol-2-yl)pyrrolidine-1-carbonyl)-5a,5b,8,8,11a-pentamethyl-1-(prop-1-en-2-yl)icosahydro-1H-cyclopenta[a]chrysen-9-yl)oxy)carbonyl)-2,2-dimethyl cyclobutane-1-carboxylic acid] | 0.0753 |  |  |
| C=C(C)[C@@H]1CC[C@]2(C(=O)N3CCC[C@H]3c3nc(-c4ccncc4)cn3CCN(C)C)CC[C@]3(C)[C@H](CC[C@@H]4[C@@]5(C)CC[C@H](OC(=O)[C@H]6C[C@@H](C(=O)O)C6(C)C)C(C)(C)[C@@H]5CC[C@]43C)[C@@H]12 [Compound 8, (1R,3S)-3-((((1R,3aS,5aR,5bR,7aR,9S,11aR,11bR,13aR,13bR)-3a-((S)-2-(1-(2-(dimethylamino)ethyl)-4-(pyridin-4-yl)-1H-imidazol-2-yl)pyrrolidine-1-carbonyl)-5a,5b,8,8,11a-pentamethyl-1-(prop-1-en-2-yl)icosahydro-1H-cyclopenta[a]chrysen-9-yl)oxy)carbonyl)-2,2-dimethyl cyclobutane-1-carboxylic acid] | 0.0125 | 243 | 9080 |
| C=C(C)[C@@H]1CC[C@]2(C(=O)N3CCC[C@H]3c3nc(-c4ccncc4)cn3CCN3CCCC3)CC[C@]3(C)[C@H](CC[C@@H]4[C@@]5(C)CC[C@H](OC(=O)[C@H]6C[C@@H](C(=O)O)C6(C)C)C(C)(C)[C@@H]5CC[C@]43C)[C@@H]12 [Compound 9, (1R,3S)-2,2-dimethyl-3-((((1R,3aS,5aR,5bR,7aR,9S,11aR,11bR,13aR,13bR)-5a,5b,8,8,11a-pentamethyl-1-(prop-1-en-2-yl)-3a-((S)-2-(4-(pyridin-4-yl)-1-(2-(pyrrolidin-1-yl)ethyl)-1H-imidazol-2-yl)pyrrolidine-1-carbonyl)icosahydro-1H-cyclopenta[a]chrysen-9-yl)oxy)carbonyl) cyclobutane-1-carboxylic acid] | 0.0106 | 260 | 6900 |
| C=C(C)[C@@H]1CC[C@]2(C(=O)N3CCC[C@H]3c3nc(-c4ccccc4)cn3CCN3CCCC3)CC[C@]3(C)[C@H](CC[C@@H]4[C@@]5(C)CC[C@H](OC(=O)[C@H]6C[C@@H](C(=O)O)C6(C)C)C(C)(C)[C@@H]5CC[C@]43C)[C@@H]12 [Compound 10, (1R,3S)-2,2-dimethyl-3-((((1R,3aS,5aR,5bR,7aR,9S,11aR,11bR,13aR,13bR)-5a,5b,8,8,11a-pentamethyl-3a-((S)-2-(4-phenyl-1-(2-(pyrrolidin-1-yl)ethyl)-1H-imidazol-2-yl)pyrrolidine-1-carbonyl)-1-(prop-1-en-2-yl)icosahydro-1H-cyclopenta[a]chrysen-9-yl)oxy)carbonyl)cyclo butane-1-carboxylic acid] | 0.00775 | 145 | 4640 |
| C=C(C)[C@@H]1CC[C@]2(C(=O)N3C[C@H](OCCOC)C[C@H]3c3nc(-c4ccccc4)cn3CCN(C)C)CC[C@]3(C)[C@H](CC[C@@H]4[C@@]5(C)CC[C@H](OC(=O)[C@H]6C[C@@H](C(=O)O)C6(C)C)C(C)(C)[C@@H]5CC[C@]43C)[C@@H]12 [Compound 25, (1R,3S)-3-((((1R,3aS,5aR,5bR,7aR,9S,11aR,11bR,13aR,13bR)-3a-((2S,4R)-2-(1-(2-(dimethylamino)ethyl)-4-phenyl-1H-imidazol-2-yl)-4-(2-methoxyethoxy)pyrrolidine-1-carbonyl)-5a,5b,8,8,11a-pentamethyl-1-(prop-1-en-2-yl)icosahydro-1H-cyclopenta[a]chrysen-9-yl)oxy)carbonyl)-2,2-dimethylcyclobutane-1-carboxylic acid] |  | 617 | 17600 |
